What was measured:
[1] = test system: Staphylococcus epidermidis ATCC 12228; assay: MIC, broth microdilution, MSSE reference strain; format: cell-based; details: ATCC12228, Staphylococcus epidermidis ATCC 12228, read-out: MIC MSSE
Source text: (§1) These strains included susceptible, multidrug-resistant, and biofilm-producing strains of S. epidermidis and S. aureus (MSSE, MDR/BPSE, and MDR/BPSA, respectively). The cornerstone antibiotic linezolid served as a positive control (Table 1). The impact of structural modifications at the aryloxy fragment and the aromatic moiety bound to the propyl linker on the inhibitory activity was initially investigated. […] Further optimization focused on evaluating the impact of the type of substituent and its position on the arylsulfonamide fragment’s activity.
(§2) 2 Biological assay protocols
(§3) Microbiological tests were carried out under aseptic conditions in a laminar chamber of the 2nd […]
(§4) (BioTectum 1.2, Alchem Poland). The assessment of antimicrobial activity was carried out for final compounds in the form of free bases, soluble in DMSO (Merck, Germany), at the initial […]
(§5) concentration of 1 mg/mL. […]
(§6) were provided by Cayman Chemical, USA.
(§7) The activity of all newly synthesized compounds was tested in vitro on a panel of selected reference strains from the American Type Culture Collection (ATCC) of Gram-positive […]
(§8) 2.2 Effect of evaluated compounds on planktonic cells
(§9) The susceptibility of three reference bacterial strains (Staphylococcus epidermidis ATCC […]
(§10) Table S1) and 81 clinical MDR S. epidermidis (Table S2) to the tested compounds was assessed by determining the MIC value (Minimal Inhibitory Concentration) by microdilution in a liquid medium in 96-well flat-bottom cell culture plates (Nest Biotechnology Scientific, USA). The antibacterial properties of the compo unds were tested in the concentration range from 50 µg/mL to 0.1 µg/mL by making a series of double dilutions of the compound in liquid Mueller -Hinton II Broth Cation Adjusted (MHB II, BBL TM, USA) according to the European Committee on […]
(§11) Antimicrobial Susceptibility Testing guidelines (EUCAST).2,3 The determinations were performed twice. The MIC50 and MIC90 values were determined for each of the tested

BJ cells = assay: Cytotoxicity, MTT assay, skin fibroblasts; format: cell-based, human
Procedure: (§12) The following cell models were used in the research: rat cardiomyocytes (H9c2 line) and human skin fibroblasts (BJ line). All cell lines used in the work are commercially available and were purchased from ATCC banks (the American Type Culture Collection, Manassas, VI, USA). Cell cultures were carried out in an incubator under standard conditions (37°C, 5% CO 2).
(§13) Culture media (Dulbecco's Modified Eagle's Medium -DMEM (H9c2) and Eagle's Minimum Essential Medium-EMEM (BJ) were supplemented with 10% bovine serum and a 1% mixture of penicillin and streptomycin antibiotics. […]
(§14) doxorubicin (a cytotoxic drug) were used as reference and positive control, respectively. […]
(§15) solution (5 mg/mL) was transferred into culture medium of incubated cells. After 3 h, once dark crystals of formazan were produced in cells, medium was aspirated and 100 μ L of DMSO was added to dissolve formazan. Absorbance of DMSO solution was read on a multiwell plate reader (Spectra Max iD3, Molecular Devices) at 570 nm. In order to determine viability, absorbance of experimental wells was divided by absorbance of contro l well (not treated) and multiplied by 100 (%). Three separate experiments were performed. IC 50 was calculated using non-linear regression method in OriginPro software. […]

[2] = test system: Staphylococcus epidermidis ATCC 35984; assay: MIC, broth microdilution, MDR/BPSE reference strain; format: cell-based; details: Staphylococcus epidermidis, ATCC35984, read-out: MIC MDR/BPSE, Staphylococcus epidermidis ATCC 35984
Source text: as §1, §2, §3, §4, §5, §6, §7, §8, §9, §10, §11

[3] = test system: biofilm-producing Staphylococcus epidermidis strains; assay: Inhibition of biofilm formation (MBIC, resazurin); format: cell-based; details: for MBIC50 / MBIC90: Table S4 strains
Procedure: After 24 hours incubation each well of
concentration of 4 mg/mL was added. […]

H9c2 cells = assay: Cytotoxicity, MTT assay, cardiomyocytes; format: cell-based; details: Rattus norvegicus, 24 h, n = 3
Procedure: as §12, §13, §14
as §15, with “incubated with studied compound in appropriate concentration for next 24 h. Then MTT solution (5” for “solution (5”

[4] = S. epidermidis ATCC 35984 (Table S4)
[5] = clinical strain 25 (Table S4, Figure 2)

O=S(=O)(NC1CCN(CCC(Oc2ccc(C(F)(F)F)cc2)c2cccs2)CC1)c1cccc(C(F)(F)F)c1 (stereo not drawn) [Compound 21]
≤ 6.25 µg/mL: MIC [1]

O=C(Nc1cccc(Cl)c1)NC1CCN(CCC(Oc2ccc(C(F)(F)F)cc2)c2cccs2)CC1 (stereo not drawn) [Compound 25]
≤ 0.8 µg/mL: MIC [2]
3.9 µg/mL: MBIC ([3]; clinical strain 8 (Table S4)) | MBIC ([3]; clinical strain 23 (Table S4))
15.6 µg/mL: MBIC50 [3] | MBIC ([3]; clinical strain 1 (Table S4)) | MBIC ([3]; clinical strain 5 (Table S4)) | MBIC ([3]; clinical strain 6 (Table S4)) | MBIC ([3]; clinical strain 16 (Table S4)) | MBIC ([3]; clinical strain 17 (Table S4)) | MBIC ([3]; clinical strain 19 (Table S4)) | MBIC ([3]; clinical strain 28 (Table S4)) | MBIC ([3]; clinical strain 29 (Table S4)) | MBIC ([3]; clinical strain 36 (Table S4)) | MBIC ([3]; clinical strain 40 (Table S4)) | MBIC ([3]; clinical strain 43 (Table S4)) | MBIC ([3]; clinical strain 44 (Table S4)) | MBIC ([3]; clinical strain 47 (Table S4)) | MBIC ([3]; clinical strain 49 (Table S4)) | MBIC ([3]; clinical strain 66 (Table S4)) | MBIC ([3]; clinical strain 74 (Table S4)) | MBIC ([3]; clinical strain 75 (Table S4))
1.6 µg/mL: MBIC ([3]; clinical strain 13 (Table S4)) | MBIC ([3]; clinical strain 30 (Table S4)) | MBIC ([3]; clinical strain 39 (Table S4))
31.25 µg/mL: MBIC90 [3] | MBIC ([3]; clinical strain 2 (Table S4)) | MBIC ([3]; clinical strain 3 (Table S4)) | MBIC ([3]; clinical strain 4 (Table S4)) | MBIC ([3]; clinical strain 9 (Table S4)) | MBIC ([3]; clinical strain 11 (Table S4)) | MBIC ([3]; clinical strain 12 (Table S4)) | MBIC ([3]; clinical strain 15 (Table S4)) | MBIC ([3]; clinical strain 21 (Table S4)) | MBIC ([3]; clinical strain 22 (Table S4)) | MBIC ([3]; clinical strain 26 (Table S4)) | MBIC ([3]; clinical strain 27 (Table S4)) | MBIC ([3]; clinical strain 33 (Table S4)) | MBIC ([3]; clinical strain 35 (Table S4)) | MBIC ([3]; clinical strain 37 (Table S4)) | MBIC ([3]; clinical strain 41 (Table S4)) | MBIC ([3]; clinical strain 42 (Table S4)) | MBIC ([3]; clinical strain 45 (Table S4)) | MBIC ([3]; clinical strain 46 (Table S4)) | MBIC ([3]; clinical strain 51 (Table S4)) | MBIC ([3]; clinical strain 55 (Table S4)) | MBIC ([3]; clinical strain 58 (Table S4)) | MBIC ([3]; clinical strain 59 (Table S4)) | MBIC ([3]; clinical strain 65 (Table S4)) | MBIC ([3]; clinical strain 67 (Table S4)) | MBIC ([3]; clinical strain 70 (Table S4))
13.2 µg/mL: IC50 (BJ cells; Homo sapiens, MTT, 24 h, n = 3)
7.8 µg/mL: MBIC [3, 4] | MBIC [3, 5] | MBIC ([3]; clinical strain 73 (Table S4)) | MBIC ([3]; clinical strain 78 (Table S4)) | MBIC ([3]; clinical strain 79 (Table S4))
visible in sector F and G: visible change in the appearance of the cells (BJ cells; 18 hours, sector F 25 µM, G 50 µM, tested 2.5-50 µM)
26.9 µg/mL: IC50 (H9c2 cells)

CC(=O)NC[C@H]1CN(c2ccc(N3CCOCC3)c(F)c2)C(=O)O1 [linezolid, reference compound]
16.9 µg/mL: IC50 (H9c2 cells)
12.5 µg/mL: MBIC ([3]; clinical strain 8 (Table S4)) | MBIC ([3]; clinical strain 23 (Table S4)) | MBIC [3, 5]
15.6 µg/mL: MBIC [3, 4] | MBIC ([3]; clinical strain 1 (Table S4)) | MBIC ([3]; clinical strain 5 (Table S4)) | MBIC ([3]; clinical strain 6 (Table S4)) | MBIC ([3]; clinical strain 16 (Table S4)) | MBIC ([3]; clinical strain 73 (Table S4)) | MBIC ([3]; clinical strain 78 (Table S4)) | MBIC ([3]; clinical strain 79 (Table S4))
25 µg/mL: MBIC50 [3] | MBIC ([3]; clinical strain 17 (Table S4)) | MBIC ([3]; clinical strain 19 (Table S4)) | MBIC ([3]; clinical strain 28 (Table S4)) | MBIC ([3]; clinical strain 29 (Table S4)) | MBIC ([3]; clinical strain 36 (Table S4)) | MBIC ([3]; clinical strain 40 (Table S4)) | MBIC ([3]; clinical strain 43 (Table S4)) | MBIC ([3]; clinical strain 44 (Table S4)) | MBIC ([3]; clinical strain 47 (Table S4)) | MBIC ([3]; clinical strain 49 (Table S4)) | MBIC ([3]; clinical strain 66 (Table S4)) | MBIC ([3]; clinical strain 74 (Table S4)) | MBIC ([3]; clinical strain 75 (Table S4))
6.25 µg/mL: MBIC ([3]; clinical strain 13 (Table S4)) | MBIC ([3]; clinical strain 30 (Table S4)) | MBIC ([3]; clinical strain 39 (Table S4))
0.8 µg/mL: MIC [1]
50 µg/mL: MBIC90 [3] | MBIC ([3]; clinical strain 2 (Table S4)) | MBIC ([3]; clinical strain 3 (Table S4)) | MBIC ([3]; clinical strain 4 (Table S4)) | MBIC ([3]; clinical strain 7 (Table S4)) | MBIC ([3]; clinical strain 9 (Table S4)) | MBIC ([3]; clinical strain 11 (Table S4)) | MBIC ([3]; clinical strain 12 (Table S4)) | MBIC ([3]; clinical strain 15 (Table S4)) | MBIC ([3]; clinical strain 21 (Table S4)) | MBIC ([3]; clinical strain 22 (Table S4)) | MBIC ([3]; clinical strain 26 (Table S4)) | MBIC ([3]; clinical strain 27 (Table S4)) | MBIC ([3]; clinical strain 33 (Table S4)) | MBIC ([3]; clinical strain 35 (Table S4)) | MBIC ([3]; clinical strain 37 (Table S4)) | MBIC ([3]; clinical strain 41 (Table S4)) | MBIC ([3]; clinical strain 42 (Table S4)) | MBIC ([3]; clinical strain 45 (Table S4)) | MBIC ([3]; clinical strain 46 (Table S4)) | MBIC ([3]; clinical strain 51 (Table S4)) | MBIC ([3]; clinical strain 55 (Table S4)) | MBIC ([3]; clinical strain 58 (Table S4)) | MBIC ([3]; clinical strain 59 (Table S4)) | MBIC ([3]; clinical strain 65 (Table S4)) | MBIC ([3]; clinical strain 67 (Table S4)) | MBIC ([3]; clinical strain 70 (Table S4))
1.6 µg/mL: MIC [2]

Source: publication PMC10945555, “Improving Activity of New Arylurea Agents against Multidrug-Resistant and Biofilm-Producing Staphylococcus epidermidis” (ACS Medicinal Chemistry Letters, 2024)
